Where a name gives a salt, the structure may show the parent alone.

One assay concerns the target T1, TLR7 (Homo sapiens, UniProt Q9NYK1).
T1 construct: host or cells: HEK-Blue cells (human HEK) co-expressing TLR7 and an NF-kB/AP1-inducible SEAP reporter
T1 sequence (Q9NYK1 27-1049): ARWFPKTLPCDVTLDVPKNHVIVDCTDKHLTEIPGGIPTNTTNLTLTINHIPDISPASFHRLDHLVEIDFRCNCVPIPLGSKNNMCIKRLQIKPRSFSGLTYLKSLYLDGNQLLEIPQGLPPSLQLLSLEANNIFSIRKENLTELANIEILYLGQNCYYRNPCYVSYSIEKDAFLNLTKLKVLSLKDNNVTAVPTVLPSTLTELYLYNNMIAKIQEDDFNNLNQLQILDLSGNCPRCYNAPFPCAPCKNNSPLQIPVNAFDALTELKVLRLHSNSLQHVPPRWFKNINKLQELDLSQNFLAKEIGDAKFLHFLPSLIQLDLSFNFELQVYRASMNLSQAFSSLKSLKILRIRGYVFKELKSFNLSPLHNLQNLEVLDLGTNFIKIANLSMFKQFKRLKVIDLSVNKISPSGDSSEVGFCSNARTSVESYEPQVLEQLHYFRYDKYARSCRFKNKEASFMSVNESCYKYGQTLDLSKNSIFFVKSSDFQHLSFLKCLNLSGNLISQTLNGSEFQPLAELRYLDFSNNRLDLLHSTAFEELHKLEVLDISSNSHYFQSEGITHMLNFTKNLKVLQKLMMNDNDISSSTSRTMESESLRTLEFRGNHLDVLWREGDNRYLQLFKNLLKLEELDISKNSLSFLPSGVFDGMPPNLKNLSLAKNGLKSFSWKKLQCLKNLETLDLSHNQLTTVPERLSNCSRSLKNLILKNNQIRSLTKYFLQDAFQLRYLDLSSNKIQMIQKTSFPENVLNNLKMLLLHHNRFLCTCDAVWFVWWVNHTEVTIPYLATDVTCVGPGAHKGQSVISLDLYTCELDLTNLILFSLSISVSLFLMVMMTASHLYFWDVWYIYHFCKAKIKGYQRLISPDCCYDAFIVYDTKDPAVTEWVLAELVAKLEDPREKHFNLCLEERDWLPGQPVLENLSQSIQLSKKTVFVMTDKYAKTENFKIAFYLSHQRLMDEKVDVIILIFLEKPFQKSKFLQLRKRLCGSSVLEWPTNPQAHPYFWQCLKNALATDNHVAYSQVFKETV
The experiment in a line: In vitro human TLR7 binding reporter assay (HEK-Blue, NF-kB/AP1-inducible SEAP). The conditions noted are these: activity range symbols. In kind it is cell-based. Put shortly:
(§1)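 Reporter cells are plated at 15,000 per well and rested 24 h. Next day, test compounds or DMSO are dispensed, followed by 18 h incubation at 37 °C, 5% CO2.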

The target in a further assay is T2, TLR8 (Homo sapiens, UniProt Q9NR97).
T2 construct: host or cells: HEK-Blue cells (human HEK) co-expressing TLR8 and an NF-kB/AP1-inducible SEAP reporter
T2 sequence (Q9NR97 27-1041): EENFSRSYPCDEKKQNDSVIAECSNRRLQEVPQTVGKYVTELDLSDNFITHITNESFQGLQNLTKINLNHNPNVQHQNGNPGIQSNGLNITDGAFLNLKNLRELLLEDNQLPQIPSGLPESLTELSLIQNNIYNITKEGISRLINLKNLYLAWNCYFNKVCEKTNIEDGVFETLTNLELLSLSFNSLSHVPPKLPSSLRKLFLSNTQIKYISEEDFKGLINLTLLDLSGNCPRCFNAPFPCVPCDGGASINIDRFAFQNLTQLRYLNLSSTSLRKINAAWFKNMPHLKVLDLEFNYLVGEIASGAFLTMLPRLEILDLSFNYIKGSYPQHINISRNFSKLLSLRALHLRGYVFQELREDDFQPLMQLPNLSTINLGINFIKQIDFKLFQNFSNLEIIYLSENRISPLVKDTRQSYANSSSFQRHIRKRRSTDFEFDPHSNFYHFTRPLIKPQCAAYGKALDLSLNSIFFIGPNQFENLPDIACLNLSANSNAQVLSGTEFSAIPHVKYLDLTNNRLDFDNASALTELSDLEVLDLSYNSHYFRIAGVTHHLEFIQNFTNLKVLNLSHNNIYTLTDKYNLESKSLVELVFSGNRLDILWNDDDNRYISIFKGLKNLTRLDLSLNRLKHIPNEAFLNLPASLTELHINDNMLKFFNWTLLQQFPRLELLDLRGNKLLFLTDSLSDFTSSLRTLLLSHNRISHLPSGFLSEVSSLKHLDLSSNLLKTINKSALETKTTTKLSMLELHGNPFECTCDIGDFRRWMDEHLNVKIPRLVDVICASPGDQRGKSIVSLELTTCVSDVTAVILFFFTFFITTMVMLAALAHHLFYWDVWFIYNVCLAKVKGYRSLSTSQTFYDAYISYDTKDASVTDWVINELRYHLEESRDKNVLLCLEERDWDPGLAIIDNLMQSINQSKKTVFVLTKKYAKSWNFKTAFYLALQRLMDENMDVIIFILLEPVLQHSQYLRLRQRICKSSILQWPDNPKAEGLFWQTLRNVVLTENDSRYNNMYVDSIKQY
The experiment in a line: In vitro human TLR8 binding reporter assay (HEK-Blue, NF-kB/AP1-inducible SEAP). The class given is cell-based. The note with it: activity range symbols. Put shortly:
as §1
Background: In a reporter assay the amount or activity of a reporter protein is the signal.

Consider `CCNCc1nc2c(N)nc3cc(-c4cc[nH]n4)ccc3c2[nH]1` [Compound 101, 2-[(Ethylamino)methyl]-7-(1H-pyrazol-3-yl)-1H-imidazo[4,5-c]quinolin-4-amine hydrochloride], for which the EC50 on TLR7 and on TLR8 was > 100 µM throughout.
On to `CC(=O)N(C)Cc1nc2c(N)nc3cc(-n4cccn4)ccc3c2[nH]1` [Compound 102, N-((4-Amino-7-(1H-pyrazol-1-yl)-1H-imidazo[4,5-c]quinolin-2-yl)methyl)-N-methylacetamide], for which the half-maximal effective concentration (EC50) on TLR7 and at TLR8 was > 100 µM throughout.
Take `CN(Cc1nc2c(N)nc3cc(-n4cccn4)ccc3c2[nH]1)S(C)(=O)=O` [Compound 119]: the EC50 on TLR7 and on TLR8 was > 100 µM throughout.
With `CN(Cc1nc2c(N)nc3cc(-c4cc[nH]n4)ccc3c2[nH]1)C(=O)C1CC1` [Compound 120], the EC50 at TLR7 and at TLR8 was > 100 µM throughout.
As to `CCN(Cc1nc2c(N)nc3cc(-c4cc[nH]n4)ccc3c2n1C)C(C)=O` [Compound 121], the EC50 on TLR7 and at TLR8 was > 100 µM in each case.
As to `CCC(=O)N(C)Cc1nc2c(N)nc3cc(-c4cc[nH]n4)ccc3c2[nH]1` [Compound 122], the EC50 on TLR7 and at TLR8 was > 100 µM throughout.
For the molecule `CCN(Cc1nc2c(N)nc3cc(-c4cc[nH]n4)ccc3c2[nH]1)S(C)(=O)=O` [Compound 124], the EC50 on TLR7 and on TLR8 was > 100 µM throughout.
With `CCC(=O)N(CC)Cc1nc2c(N)nc3cc(-c4cc[nH]n4)ccc3c2[nH]1` [Compound 125], the EC50 on TLR7 and at TLR8 was > 100 µM each time.
Consider `CCN(Cc1nc2c(N)nc3cc(-c4cc[nH]n4)ccc3c2[nH]1)C(=O)NC` [Compound 128], for which the EC50 on TLR7 and on TLR8 was > 100 µM throughout.
On to `CC(=O)N(C)Cc1nc2c(N)nc3cc(-c4cc[nH]n4)ccc3c2[nH]1` [Compound 129], for which the EC50 at TLR7 and on TLR8 was > 100 µM throughout.
In the case of `CCN(Cc1nc2c(N)nc3cc(-n4cccn4)ccc3c2[nH]1)C(N)=O` [Compound 130], the EC50 on TLR7 and at TLR8 was > 100 µM each time.
Turning to `NCc1nc2c(N)nc3cc(-c4cc[nH]n4)ccc3c2[nH]1` [Compound 131], the EC50 on TLR7 and on TLR8 was > 100 µM each time.
`CCN(Cc1nc2c(N)nc3cc(-n4nccn4)ccc3c2[nH]1)C(C)=O` [Compound 132]: the EC50 on TLR7 and on TLR8 was > 100 µM each time.
`CC(c1nc2c(N)nc3cc(-c4cccnc4)ccc3c2[nH]1)N1CCCC1=O` (centres unmarked) [Compound 138]: the EC50 on TLR7 is 20 to 100 µM; on TLR8 it was > 100 µM.
Take `CC(=O)N(Cc1nc2c(N)nc3cc(-c4cc[nH]n4)ccc3c2[nH]1)C(C)C` [Compound 140]: the EC50 at TLR7 and at TLR8 was > 100 µM throughout.
Consider `Nc1nc2ccc(Cl)cc2c2[nH]c(CN3CCCC3=O)nc12` [Compound 141], for which the EC50 on TLR7 and at TLR8 was > 100 µM each time.
With `CC(C)(C)OC(=O)NCc1nc2c(N)nc3cc(-c4cc[nH]n4)ccc3c2[nH]1` [Compound 142], the EC50 on TLR7 and on TLR8 was > 100 µM in each case.
With `Nc1nc2cc(Cl)ccc2c2[nH]c(CN3CCCC3=O)nc12` [Compound 143], the EC50 is 20 to 100 µM on TLR7 and > 100 µM on TLR8.
The corresponding values for `Nc1nc2cc(-c3ccc(Cl)nc3)ccc2c2[nH]c(CN3CCCC3=O)nc12` [Compound 153] are 20 to 100 µM and > 100 µM.
`CCNCc1nc2c(N)nc3cc(OC)ccc3c2[nH]1` [Compound 154]: the values for the EC50 on TLR7 and at TLR8 were > 100 µM and 20 to 100 µM, respectively.
On to `CCN(Cc1nc2c(N)nc3cc(-c4ncc[nH]4)ccc3c2[nH]1)C(=O)OC(C)(C)C` [Compound 155], for which the EC50 on TLR7 and at TLR8 was > 100 µM in each case.
With `Nc1nc2cc(-n3ncc4ccccc43)ccc2c2[nH]c(CN3CCCC3=O)nc12` [Compound 157], the EC50 at TLR7 and at TLR8 was 20 to 100 µM in each case.
On to `CCN(Cc1nc2c(N)nc3cc(OC)ccc3c2[nH]1)C(C)=O` [Compound 158, N-((4-Amino-7-methoxy-1H-imidazo[4,5-c]quinolin-2-yl)methyl)-N-ethylacetamide], for which the EC50 on TLR7 and on TLR8 was > 100 µM in each case.
`CCN(Cc1nc2c(N)nc3cc(Cl)c(Cl)cc3c2[nH]1)C(C)=O` [Compound 159]: the EC50 at TLR7 and at TLR8 was > 100 µM throughout.
On to `CCNCc1nc2c(N)nc3cc(-c4ncc[nH]4)ccc3c2[nH]1` [Compound 162], for which the EC50 on TLR7 and at TLR8 was > 100 µM each time.
In the case of `CCN(Cc1nc2c(N)nc3cc(-c4cc[nH]n4)ccc3c2[nH]1)CC(C)C` [Compound 453, 2-{[ethyl(2-methylpropyl)amino]methyl}-7-(1H-pyrazol-3-yl)-1H-imidazo[4,5-c]quinolin-4-amine], the EC50 on TLR7 and at TLR8 was > 100 µM in each case.
Regarding `CCN(CC)C(=O)N(CC)Cc1nc2c(N)nc3cc(-c4cc[nH]n4)ccc3c2[nH]1` [Compound 454, 1-{[4-amino-7-(1H-pyrazol-3-yl)-1H-imidazo[4,5-c]quinolin-2-yl]methyl}-1,3,3-triethylurea], the EC50 at TLR7 and at TLR8 was > 100 µM in each case.
Turning to `CCN(Cc1nc2c(N)nc3cc(-c4cc[nH]n4)ccc3c2[nH]1)C(=O)N1CCOCC1` [Compound 455, N-{[4-amino-7-(1H-pyrazol-3-yl)-1H-imidazo[4,5-c]quinolin-2-yl]methyl}-N-ethylmorpholine-4-carboxamide], the EC50 at TLR7 and at TLR8 was > 100 µM in each case.
On to `CCN(Cc1nc2c(N)nc3cc(-c4cc[nH]n4)ccc3c2[nH]1)C(=O)NC(C)(C)C` [Compound 456, 1-{[4-amino-7-(1H-pyrazol-3-yl)-1H-imidazo[4,5-c]quinolin-2-yl]methyl}-3-tert-butyl-1-ethylurea], for which the EC50 at TLR7 and at TLR8 was > 100 µM in each case.
In the case of `CCNC(=O)N(CC)Cc1nc2c(N)nc3cc(-c4cc[nH]n4)ccc3c2[nH]1` [Compound 457, 1-{[4-amino-7-(1H-pyrazol-3-yl)-1H-imidazo[4,5-c]quinolin-2-yl]methyl}-1,3-diethylurea], the EC50 on TLR7 and at TLR8 was > 100 µM throughout.
With `CCN(Cc1nc2c(N)nc3cc(-c4cc[nH]n4)ccc3c2[nH]1)S(=O)(=O)N(C)C` [Compound 458, 2-{[(dimethylsulfamoyl)(ethyl)amino]methyl}-7-(1H-pyrazol-3-yl)-1H-imidazo[4,5-c]quinolin-4-amine], the EC50 at TLR7 and on TLR8 was > 100 µM throughout.

By EC50 is commonly meant the concentration needed to bring the measured effect to its halfway point.

Source of the values: patent US12351580B2, “NLRP3 modulators” (Innate Tumor Immunity, Inc., priority 2017, dated 2025).
